# “And” between values parts separate entries of the source, which are not always exact repeats. Equal values may be shown once. Read-outs that look alike come from different tables or passages of the source.
# How the values were obtained:
# [1] = target: T1, methylphosphonate-aged AChE (Electrophorus electricus, UniProt O42275); type: biochemical, electric eel
# T1 construct: purchased Sigma Aldrich
# [2] = target: T2, isopropyl phosphate-aged eeAChE (Electrophorus electricus, UniProt O42275); type: biochemical, electric eel
# T2 construct: purchased Sigma Aldrich
# T2 sequence (O42275 24-633): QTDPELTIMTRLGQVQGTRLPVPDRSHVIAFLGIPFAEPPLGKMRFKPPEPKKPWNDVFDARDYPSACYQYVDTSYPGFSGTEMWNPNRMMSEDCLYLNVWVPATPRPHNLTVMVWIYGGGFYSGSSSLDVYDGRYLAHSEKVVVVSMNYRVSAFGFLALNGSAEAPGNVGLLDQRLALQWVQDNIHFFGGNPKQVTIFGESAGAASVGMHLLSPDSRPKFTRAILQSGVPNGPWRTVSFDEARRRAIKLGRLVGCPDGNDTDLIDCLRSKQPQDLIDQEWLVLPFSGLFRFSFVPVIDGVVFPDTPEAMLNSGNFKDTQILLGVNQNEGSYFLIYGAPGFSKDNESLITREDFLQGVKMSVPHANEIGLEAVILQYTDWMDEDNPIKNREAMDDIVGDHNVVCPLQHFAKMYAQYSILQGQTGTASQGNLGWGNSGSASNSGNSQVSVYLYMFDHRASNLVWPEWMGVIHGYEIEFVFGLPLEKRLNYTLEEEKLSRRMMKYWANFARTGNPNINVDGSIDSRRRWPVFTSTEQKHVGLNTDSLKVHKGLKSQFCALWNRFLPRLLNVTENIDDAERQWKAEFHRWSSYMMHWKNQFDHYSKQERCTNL
# [3] = target: T3, methylphosphonate-aged eeAChE (Electrophorus electricus, UniProt O42275); type: biochemical, electric eel; conditions: for screening efficacy, relative activity (FIG. 3B), in words: pH 8
# T3 construct: purchased Sigma Aldrich
# T3 sequence (O42275 24-633): as above
# [4] = target: T3, methylphosphonate-aged eeAChE; type: biochemical, electric eel
# [5] = target: T2, isopropyl phosphate-aged eeAChE; type: biochemical, electric eel; remark: listed apart in the source
# [6] = target: T2, isopropyl phosphate-aged eeAChE; type: biochemical, electric eel; remark: listed apart in the source
# [7] = target: T3, methylphosphonate-aged eeAChE; type: biochemical, electric eel; conditions: pH 8
# [8] = target: T2, isopropyl phosphate-aged eeAChE; assay: biochemical; set-up: species or system electric eel
# [9] = target: T2, isopropyl phosphate-aged eeAChE; type: biochemical, electric eel; conditions: pH 8
# physchem = conditions: pH 6
# [10] = target: T3, methylphosphonate-aged eeAChE; assay: biochemical; set-up: species or system electric eel
# [11] = target: isopropyl phosphate-aged (DFP-treated) recombinant huAChE (Homo sapiens, UniProt P22303); type: biochemical; conditions: pH 9
# isopropyl phosphate-aged (DFP-treated) recombinant huAChE, sequence (P22303 32-614): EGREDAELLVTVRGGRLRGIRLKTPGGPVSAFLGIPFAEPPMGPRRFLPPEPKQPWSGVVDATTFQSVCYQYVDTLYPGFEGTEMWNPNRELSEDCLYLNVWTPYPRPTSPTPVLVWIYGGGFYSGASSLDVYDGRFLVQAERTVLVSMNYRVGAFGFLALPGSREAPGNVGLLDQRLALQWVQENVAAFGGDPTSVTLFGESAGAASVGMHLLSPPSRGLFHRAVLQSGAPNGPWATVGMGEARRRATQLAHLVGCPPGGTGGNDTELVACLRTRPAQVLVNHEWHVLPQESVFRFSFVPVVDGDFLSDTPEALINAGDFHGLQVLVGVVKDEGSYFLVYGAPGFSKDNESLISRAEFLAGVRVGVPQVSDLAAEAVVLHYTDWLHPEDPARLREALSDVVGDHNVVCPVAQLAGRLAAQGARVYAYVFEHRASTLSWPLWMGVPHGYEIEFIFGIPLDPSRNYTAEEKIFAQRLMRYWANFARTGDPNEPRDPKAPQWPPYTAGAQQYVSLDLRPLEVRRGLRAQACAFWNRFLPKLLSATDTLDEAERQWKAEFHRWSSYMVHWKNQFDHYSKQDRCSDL
# T1 sequence (O42275 24-633): as the sequence (O42275 24-633) above
smiles,measurement,setting,value
"C[n+]1ccccc1/C=N/O [2-PAM, 2-pralidoxime, reference compound]",Percentage of AChE species: Aged,[1],100%
same,Percentage of AChE species: Native,[1],0%
same,Percentage of AChE species: Realkylated,[1],0%
same,Percentage of AChE species: Aged,[2],100%
same,Percentage of AChE species: Native,[2],0%
same,Percentage of AChE species: Realkylated,[2],0%
"CCN(CC)Cc1ncccc1O [C7, 2-((diethylamino)methyl)pyridin-3-ol]","screening efficacy, relative activity (FIG. 3B), in words",[3],highest efficacy among C1 to C7
"Oc1cccnc1CN1CCCC1 [C8, 2-(pyrrolidin-1-ylmethyl)pyridin-3-ol]",Percentage of AChE species: Aged,[1],97.9%
same,Percentage of AChE species: Native,[1],2.1%
same,Percentage of AChE species: Realkylated,[1],0%
same,Relative activity (percentage of positive control),[4]; pH 6,0.273 ± 0.004%
same,Relative activity (percentage of positive control),[4]; pH 7,1.24 ± 0.02%
same,Relative activity (percentage of positive control),[4]; pH 8,8.47 ± 0.17%
same,reactivation (resurrection of AChE activity),[5],1.25%
same,"activity in comparison of scaffolds with pyrrolidine leaving group (M series), in words",[3],only active compound in this comparison
same,reactivation (resurrection of AChE activity),[3],~2.5%
same,"screening efficacy, relative activity (FIG. 3B), in words",[3],most potent candidate in this screen
same,Relative activity (percentage of positive control),[6]; pH 6,0.68 ± 0.06%
same,Relative activity (percentage of positive control),[6]; pH 7,1.04 ± 0.07%
same,Relative activity (percentage of positive control),[6]; pH 8,3.58 ± 0.33%
same,Relative activity (percentage of positive control),[6]; pH 9,5.27 ± 0.59%
same,apparent reaction rate,[7],0.32 % per hour
same,resurrected relative activity,[7],32.7%
same,EC50,[8],5.87 mM
same,Percentage of AChE species: Aged,[2],84.6%
same,Percentage of AChE species: Native,[2],15.4%
same,Percentage of AChE species: Realkylated,[2],0%
same,apparent reaction rate,[9],0.20 % per hour
same,resurrected relative activity,[9],20.4% and 30.4%
same,pKa,physchem,7 to 8
same,EC50,[10],1.18 mM
same,aged enzyme resurrected,[11],18%
